# Values quoted from earlier work, collected in patent publication US20100120907A1, “DERIVATIVES OF AMYRIS ALCOHOLS AND EUDESMOL FOR TREATING COLD SORES AND HERPES” (priority 2007, published 2010).
# How the values were obtained:
# [1] = system: cold sores; conditions: topical cream
# [2] = target: omega-agatoxin IVA-sensitive (P/Q-type) Ca^2+ channel (Rattus norvegicus, UniProt P54282)
# [3] = system: neurogenic inflammation; conditions: following electrical stimulation of rat trigeminal ganglion
# [4] = system: PC-12 cells
# [5] = system: porcine brain microvascular endothelial cells; conditions: 50-100 microM
# [6] = system: human umbilical vein endothelial cells (HUVEC)
# [7] = system: extracellular signal-regulated kinase (ERK) ½; conditions: 100 microM
# [8] = system: angiogenesis; conditions: mice
# [9] = target: nicotinic ACh receptor channel (Homo sapiens, UniProt P02708+P11230+Q04844+Q07001)
# [10] = system: Na^+, K(+)-ATPase; conditions: among the various kinds of phosphatases examined
# [11] = system: skin papillomas; conditions: DMBA-initiated, TPA-promoted, mice
# [12] = system: ornithine decarboxylase (ODC); conditions: mice
# Sequence of nicotinic ACh receptor channel (P02708 21-457): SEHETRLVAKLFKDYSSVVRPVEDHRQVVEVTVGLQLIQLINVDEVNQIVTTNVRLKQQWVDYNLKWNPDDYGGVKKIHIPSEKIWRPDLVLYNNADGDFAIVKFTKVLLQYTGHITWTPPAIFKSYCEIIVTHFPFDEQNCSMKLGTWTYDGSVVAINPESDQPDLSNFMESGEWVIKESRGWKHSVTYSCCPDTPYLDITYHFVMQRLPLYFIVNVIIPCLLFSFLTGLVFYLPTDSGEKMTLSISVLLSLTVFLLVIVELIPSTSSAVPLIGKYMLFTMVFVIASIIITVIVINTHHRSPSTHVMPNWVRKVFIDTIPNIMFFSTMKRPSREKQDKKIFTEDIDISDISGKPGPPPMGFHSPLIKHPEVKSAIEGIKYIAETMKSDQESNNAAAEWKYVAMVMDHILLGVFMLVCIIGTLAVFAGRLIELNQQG
# Sequence of nicotinic ACh receptor channel (P11230 24-501): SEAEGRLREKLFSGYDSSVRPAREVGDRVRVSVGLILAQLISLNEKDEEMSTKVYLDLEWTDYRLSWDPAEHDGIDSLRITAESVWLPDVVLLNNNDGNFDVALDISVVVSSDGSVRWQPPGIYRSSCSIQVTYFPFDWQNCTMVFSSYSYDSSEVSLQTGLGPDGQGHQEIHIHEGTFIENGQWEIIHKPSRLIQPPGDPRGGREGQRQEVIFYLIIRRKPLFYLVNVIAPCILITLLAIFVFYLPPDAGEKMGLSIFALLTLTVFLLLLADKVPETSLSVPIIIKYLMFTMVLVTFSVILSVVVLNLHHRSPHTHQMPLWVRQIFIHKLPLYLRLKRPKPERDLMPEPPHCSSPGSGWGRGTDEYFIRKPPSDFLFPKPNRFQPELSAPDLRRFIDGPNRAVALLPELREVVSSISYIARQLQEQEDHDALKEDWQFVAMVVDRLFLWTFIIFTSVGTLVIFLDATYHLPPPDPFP
# Sequence of nicotinic ACh receptor channel (Q07001 22-517): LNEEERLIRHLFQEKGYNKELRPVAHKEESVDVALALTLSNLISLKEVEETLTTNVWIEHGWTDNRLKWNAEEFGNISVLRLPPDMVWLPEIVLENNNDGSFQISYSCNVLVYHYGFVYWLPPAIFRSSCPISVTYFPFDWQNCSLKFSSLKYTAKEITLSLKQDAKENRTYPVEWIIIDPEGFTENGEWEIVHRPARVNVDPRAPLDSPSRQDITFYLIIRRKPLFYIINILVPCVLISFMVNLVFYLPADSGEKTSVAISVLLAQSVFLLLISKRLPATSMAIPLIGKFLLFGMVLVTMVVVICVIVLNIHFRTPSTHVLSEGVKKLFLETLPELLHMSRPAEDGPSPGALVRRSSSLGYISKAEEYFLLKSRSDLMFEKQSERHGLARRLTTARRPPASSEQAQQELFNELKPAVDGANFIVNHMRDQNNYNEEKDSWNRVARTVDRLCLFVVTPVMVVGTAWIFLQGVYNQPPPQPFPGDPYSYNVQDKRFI
# Sequence of nicotinic ACh receptor channel (Q04844 21-493): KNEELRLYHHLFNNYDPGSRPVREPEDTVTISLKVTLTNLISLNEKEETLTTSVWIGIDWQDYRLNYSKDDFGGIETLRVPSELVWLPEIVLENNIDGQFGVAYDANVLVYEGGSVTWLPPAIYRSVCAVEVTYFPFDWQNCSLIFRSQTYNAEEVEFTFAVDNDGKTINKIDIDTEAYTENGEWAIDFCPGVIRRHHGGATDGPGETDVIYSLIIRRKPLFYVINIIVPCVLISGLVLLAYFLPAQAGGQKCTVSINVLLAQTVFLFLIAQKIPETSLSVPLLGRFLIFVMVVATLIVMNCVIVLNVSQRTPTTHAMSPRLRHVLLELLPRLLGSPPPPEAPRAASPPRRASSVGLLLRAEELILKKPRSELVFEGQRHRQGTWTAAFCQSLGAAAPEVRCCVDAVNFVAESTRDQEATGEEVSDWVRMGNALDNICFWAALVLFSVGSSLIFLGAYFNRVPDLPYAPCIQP
# Sequence of omega-agatoxin IVA-sensitive (P/Q-type) Ca^2+ channel (P54282 whole entry): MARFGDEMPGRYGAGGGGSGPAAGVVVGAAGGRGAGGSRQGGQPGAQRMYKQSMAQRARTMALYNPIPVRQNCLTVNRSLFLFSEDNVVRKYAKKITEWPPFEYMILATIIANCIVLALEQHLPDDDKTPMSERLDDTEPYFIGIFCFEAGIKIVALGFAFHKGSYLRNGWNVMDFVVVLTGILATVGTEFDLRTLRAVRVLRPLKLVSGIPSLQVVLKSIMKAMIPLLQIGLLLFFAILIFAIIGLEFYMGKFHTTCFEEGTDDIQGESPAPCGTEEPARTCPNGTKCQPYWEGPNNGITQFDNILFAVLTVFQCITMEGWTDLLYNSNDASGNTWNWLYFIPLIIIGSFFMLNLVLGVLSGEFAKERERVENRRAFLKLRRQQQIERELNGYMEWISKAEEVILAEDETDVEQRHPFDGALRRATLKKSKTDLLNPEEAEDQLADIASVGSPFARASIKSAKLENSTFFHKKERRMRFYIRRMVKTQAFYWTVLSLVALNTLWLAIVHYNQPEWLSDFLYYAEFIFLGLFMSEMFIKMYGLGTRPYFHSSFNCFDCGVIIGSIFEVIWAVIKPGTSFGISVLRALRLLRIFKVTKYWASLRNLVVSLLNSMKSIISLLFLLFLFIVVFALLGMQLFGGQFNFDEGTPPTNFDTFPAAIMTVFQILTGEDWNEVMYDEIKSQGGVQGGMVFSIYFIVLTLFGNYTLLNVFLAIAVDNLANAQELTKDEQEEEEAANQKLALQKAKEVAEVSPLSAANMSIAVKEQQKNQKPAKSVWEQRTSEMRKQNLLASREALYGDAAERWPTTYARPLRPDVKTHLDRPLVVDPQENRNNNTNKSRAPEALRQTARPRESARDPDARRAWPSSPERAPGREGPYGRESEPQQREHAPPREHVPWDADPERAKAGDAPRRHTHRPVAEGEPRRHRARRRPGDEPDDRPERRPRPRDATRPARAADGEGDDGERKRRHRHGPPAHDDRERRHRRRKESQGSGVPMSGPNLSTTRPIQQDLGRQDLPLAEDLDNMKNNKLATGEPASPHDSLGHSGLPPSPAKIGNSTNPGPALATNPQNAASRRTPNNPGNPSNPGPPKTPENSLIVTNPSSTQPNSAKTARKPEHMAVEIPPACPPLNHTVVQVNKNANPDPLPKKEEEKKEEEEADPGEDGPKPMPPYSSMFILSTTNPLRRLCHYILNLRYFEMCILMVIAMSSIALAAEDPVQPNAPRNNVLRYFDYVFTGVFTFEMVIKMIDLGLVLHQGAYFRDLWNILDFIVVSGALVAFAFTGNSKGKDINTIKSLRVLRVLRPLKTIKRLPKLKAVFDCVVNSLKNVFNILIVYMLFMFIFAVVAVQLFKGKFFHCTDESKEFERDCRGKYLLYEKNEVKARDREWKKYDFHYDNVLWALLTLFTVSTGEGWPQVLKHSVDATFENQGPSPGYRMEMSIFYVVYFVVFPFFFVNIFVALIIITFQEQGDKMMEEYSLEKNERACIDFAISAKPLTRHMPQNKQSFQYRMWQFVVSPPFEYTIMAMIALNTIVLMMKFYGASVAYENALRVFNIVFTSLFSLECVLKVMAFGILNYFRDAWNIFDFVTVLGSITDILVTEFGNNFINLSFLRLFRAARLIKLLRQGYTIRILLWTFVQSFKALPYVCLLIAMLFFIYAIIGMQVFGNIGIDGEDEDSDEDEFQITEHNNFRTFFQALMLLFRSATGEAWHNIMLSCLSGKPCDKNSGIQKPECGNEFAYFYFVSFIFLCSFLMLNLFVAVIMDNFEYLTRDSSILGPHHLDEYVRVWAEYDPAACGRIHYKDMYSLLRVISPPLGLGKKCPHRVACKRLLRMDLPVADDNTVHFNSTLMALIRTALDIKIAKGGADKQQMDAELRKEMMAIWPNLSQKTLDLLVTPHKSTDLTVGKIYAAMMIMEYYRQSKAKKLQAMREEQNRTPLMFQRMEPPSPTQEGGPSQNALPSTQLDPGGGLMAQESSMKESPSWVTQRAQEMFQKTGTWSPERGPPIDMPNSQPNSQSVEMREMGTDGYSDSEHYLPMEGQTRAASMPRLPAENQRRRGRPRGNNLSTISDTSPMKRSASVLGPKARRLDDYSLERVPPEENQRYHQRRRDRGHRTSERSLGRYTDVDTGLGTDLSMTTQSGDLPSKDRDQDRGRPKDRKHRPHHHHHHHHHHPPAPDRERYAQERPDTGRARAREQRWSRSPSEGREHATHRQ
compound,measurement,setting,value
Nc1nc2c(ncn2COCCO)c(=O)[nH]1 [Acyclovir],reduction of healing time / duration of cold sores,[1],up to ½
CC1=CCC[C@]2(C)CC[C@@H](C(C)(C)O)C[C@@H]12 [α-eudesmol],inhibition of P/Q-type Ca2+ channel,[2],potently inhibits
same,inhibition of neurogenic inflammation,[3],potently inhibits
C=C1CCC[C@]2(C)CC[C@@H](C(C)(C)O)C[C@@H]12 [β-eudesmol],neurite extension,[4]; 100 and 150 μM,significantly induced neurite extension
same,[3H]thymidine incorporation,[4]; at the highest concentration (150 μM),suppression
same,proliferation,[5],inhibited
same,HUVEC migration stimulated by bFGF,[6],inhibited
same,tube formation by HUVEC in Matrigel,[6],inhibited
same,proliferation,[6]; 50-100 microM,inhibited
same,phosphorylation of ERK ½ induced by bFGF or vascular endothelial growth factor,[7],blocked
same,angiogenesis in subcutaneously implanted Matrigel plugs and in adjuvant-induced granuloma,[8],significantly inhibited
same,block of nicotinic ACh receptor channel,[9],blocked the nicotinic ACh receptor channel in both the open and closed conformations
same,desensitization of the nicotinic ACh receptor,[9],accelerated the desensitization
same,"inhibition of Na+,K+-ATPase activity",[10],most strongly
santalol,decrease of papilloma incidence,[11],67%
same,decrease of papilloma multiplicity,[11],96%
same,decrease of TPA-induced ODC activity,[12],70%
